From patent US7030242B2, “Selective inhibition of aggrecanase in osteoarthritis treatment” (Pfizer Inc, priority 1999, dated 2006)

Key:
[1] = biological target: Human recombinant collagenase-3 (Homo sapiens, UniProt P45452); assay: Inhibition of human collagenase-3 (recombinant collagenase-3 assay); assay type: biochemical; details: Table 2; recombinant collagenase-3 assay; read-out: MMP-13 (IC50 class)
Method: Inhibition of Human Collagenase-3 (Recombinant Collagenase-3 Assay)
This assay is used in the invention to measure the potency (IC50s) of compounds for collagenase-3.
Human recombinant collagenase-3 is activated with 2 mM APMA (p-aminophenyl mercuric acetate) for about 2.0 hours, at about 37° C. and is diluted to about 240 ng/ml in assay buffer (50 mM Tris, pH 7.5, 200 mM sodium chloride, 5 mM calcium chloride, […], 0.02% BRIJ-35). Twenty-five micro-liters of diluted enzyme is added per well of a 96 well microfluor plate.
The final concentrations in the assay are 30 μM, 3 μM, 0.3 μM, and 0.03 μM.
Fluorescence readings (360 nm excitation; 450 nm emission) are taken at time 0 and about every 5 minutes for about 1 hour.
Positive controls and negative controls are set up in triplicate as outlined in the collagenase-1 assay. IC50's are determined as per inhibition of human collagenase (collagenase-1).

[2] = biological target: T1, Human recombinant collagenase-1 (Homo sapiens, UniProt P03956); assay: Inhibition of human collagenase-1 (recombinant collagenase-1 assay); assay type: biochemical; details: Table 2, read-out: MMP-1 (IC50 class)
T1 sequence (P03956 100-469): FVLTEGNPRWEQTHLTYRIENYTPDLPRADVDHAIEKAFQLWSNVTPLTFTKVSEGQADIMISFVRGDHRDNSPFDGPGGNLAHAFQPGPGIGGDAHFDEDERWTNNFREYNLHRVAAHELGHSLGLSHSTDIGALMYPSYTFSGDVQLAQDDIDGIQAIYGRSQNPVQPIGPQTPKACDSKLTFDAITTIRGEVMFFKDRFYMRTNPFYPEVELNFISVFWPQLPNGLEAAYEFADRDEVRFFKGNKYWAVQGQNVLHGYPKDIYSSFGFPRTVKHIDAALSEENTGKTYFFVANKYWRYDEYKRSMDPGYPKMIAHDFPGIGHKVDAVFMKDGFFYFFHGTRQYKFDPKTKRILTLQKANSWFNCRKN
Method: Inhibition of Human Collagenase-1 (Recombinant Collagenase-1 Assay)
This assay is used in the invention to measure the potency (IC50s) of compounds for collagenase-1.
Human recombinant collagenase-1 is activated with trypsin. The amount of trypsin is optimized for each lot of collagenase-1, but a typical reaction uses the following ratio: 5 mg trypsin per 100 mg of collagenase.
Stock solutions (10 mM) of inhibitors are made up in dimethylsulfoxide and then diluted using the following scheme: • 10 mM------>120 μM------>12 μM------>1.2 μM------>0.12 μM
Twenty-five microliters of each concentration is then added in triplicate to appropriate wells of a 96 well microfluor plate. The final concentration of inhibitor will be a 1:4 dilution after addition of enzyme and substrate. Positive controls (enzyme, no inhibitor) are set up in wells D7–D12 and negative controls (no enzyme, no inhibitors) are set in wells D1–D6.
Collagenase-1 is diluted to 240 ng/ml and […] is then added to appropriate wells of the microfluor plate. Final concentration of collagenase in the assay is 60 ng/ml.
Substrate (DNP-Pro-Cha-Gly-Cys(Me)-His-Ala-Lys(NMA)-NH2) is made as a 5 mM stock in dimethylsulfoxide and then diluted to 20 μM in assay buffer. The assay is initiated by the addition of […] substrate per well of the microfluor plate to give a final concentration of 10 μM.
Fluorescence readings (360 nm excitation, 460 nm emission) are taken at time 0 and then at about 20 minute intervals. The assay is conducted at a temperature of about 20 to about 25° C., preferably about 23° C. with a typical assay time of about 3 hours.
Fluorescence versus time is then plotted for both the blank and collagenase containing samples (data from triplicate determinations is averaged). A time point that provides a good signal (at least five fold over the blank) and that is on a linear part of the curve (usually around 120 minutes) is chosen to determine IC50 values. The zero time is used as a blank for each compound at each concentration and these values are subtracted from the 120 minute data. Data is plotted as inhibitor concentration versus % control (inhibitor fluorescence divided by fluorescence of collagenase alone ×100).

aggrecanase = assay: Aggrecanase chondrocyte assay (35S-proteoglycan release, IL-1 stimulated); assay type: cell-based, porcine; details: Table 2; aggrecanase chondrocyte assay; read-out: Agg (aggrecanase IC50 class)
Method: Aggrecanase Chondrocyte Assay
This assay is used in the invention to measure the potency (IC50s) of compounds for aggrecanase.
Primary porcine chondrocytes from articular joint cartilage are isolated by sequential trypsin and collagenase digestion followed by collagenase digestion overnight and are plated at 2×10^5 cells per well into 48 well plates with 5 μCi/ml ^35S (1000 Ci/mmol) sulphur in type I collagen coated plates. Cells are allowed to incorporate label into their proteoglycan matrix (approximately 1 week) at 37° C., under an atmosphere of 5% CO2.
The night before initiating the assay, chondrocyte monolayers are washed two times in DMEM/1% PSF/G and then allowed to incubate in fresh DMEM/1% FBS overnight.
The following morning chondrocytes are washed once in DMEM/1% PSF/G. The final wash is allowed to sit on the plates in the incubator while making dilutions. Media and dilutions can be made as described in the Table I below.
Plates are labeled and only the interior 24 wells of the plate are used. On one of the plates, several columns are designated as IL-1 (no drug) and Control (no IL-1, no drug). These control columns are periodically counted to monitor 35S-proteoglycan release. Control and IL-1 media are added to wells (450 μl) followed by compound (50 μl) so as to initiate the assay. Plates are incubated at 37° C., with a 5% CO2 atmosphere.
At 40–50% release (when CPM from IL-1 media is 4–5 times control media) as assessed by liquid scintillation counting (LSC) of media samples, the assay is terminated (about 9 to about 12 hours). Media is removed from all wells and placed in scintillation tubes. Scintillate is added and radioactive counts are acquired (LSC). To solubilize cell layers, 500 μL of papain digestion buffer (0.2 M Tris, pH 7.0, 5 mM EDTA, 5 mM DTT, and 1 mg/ml papain) is added to each well. Plates with digestion solution are incubated at 60° C. overnight. The cell layer is removed from the plates the next day and placed in scintillation tubes. Scintillate is then added, and samples counted (LSC).
The percent of released counts from the total present in each well is determined. Averages of the triplicates are made with control background subtracted from each well.

TACE = biological target: T2, TACE (Homo sapiens, UniProt P78536); assay: Inhibition of soluble TNF-α production (TACE whole blood assay); assay type: cell-based; details: Table 2, read-out: TACE (IC50 class)
T2 construct: Human mononuclear cells are isolated from anti-coagulated human blood; endogenous in cells; host or cells: human peripheral blood mononuclear cells, LPS stimulated
T2 sequence (P78536 215-824): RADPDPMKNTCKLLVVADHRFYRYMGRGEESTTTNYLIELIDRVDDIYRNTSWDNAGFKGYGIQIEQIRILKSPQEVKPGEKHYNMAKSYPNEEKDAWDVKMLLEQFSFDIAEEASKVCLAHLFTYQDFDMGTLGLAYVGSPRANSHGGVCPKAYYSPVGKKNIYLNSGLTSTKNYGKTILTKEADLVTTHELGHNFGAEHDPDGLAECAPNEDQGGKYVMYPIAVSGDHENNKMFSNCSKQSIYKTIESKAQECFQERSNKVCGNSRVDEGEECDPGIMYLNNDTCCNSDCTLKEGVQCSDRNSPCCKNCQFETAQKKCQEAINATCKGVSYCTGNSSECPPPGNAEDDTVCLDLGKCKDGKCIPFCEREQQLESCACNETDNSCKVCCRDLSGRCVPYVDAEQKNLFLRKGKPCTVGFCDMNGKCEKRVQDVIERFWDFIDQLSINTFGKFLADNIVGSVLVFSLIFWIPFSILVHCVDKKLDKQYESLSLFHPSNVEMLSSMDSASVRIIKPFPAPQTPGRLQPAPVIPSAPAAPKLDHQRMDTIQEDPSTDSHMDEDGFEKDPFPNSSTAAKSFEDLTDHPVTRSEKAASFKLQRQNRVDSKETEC
Method: Inhibition of Soluble TNF-α Production (TACE Whole Blood Assay)
This assay is used in the invention to measure the potency (IC50s) of compounds for TACE.
Human mononuclear cells are isolated from anti-coagulated human blood using a one-step Ficoll-hypaque separation technique. (2) The mononuclear cells are washed three times in Hanks balanced salt solution (HBSS) with divalent cations and re-suspended to a density of 2×10^6/ml in HBSS containing 1% BSA.
180 μL of the cell suspension was aliquoted into flat bottom 96 well plates (Costar). Additions of compounds and LPS (100 ng/ml final concentration) gives a final volume of 200 μL. All conditions are performed in triplicate. After about a four hour incubation at about 37° C. in an humidified CO2 incubator, plates are removed and centrifuged (about 10 minutes at approximately 250×g) and the supernatants removed and assayed for TNF-α using the R&D ELISA Kit.

| IC50 [1] [µM] | IC50 [2] [µM] | IC50 (aggrecanase) [µM] | IC50 (TACE) [µM] | Structure (SMILES) |
| --- | --- | --- | --- | --- |
| 0.01 to 0.02 | > 1 | < 0.01 | < 10 | Cc1ccc(F)cc1COc1ccc(S(=O)(=O)N2CC(=O)N[C@@H](C)[C@@H]2C(=O)NO)cc1 [(2R,3S) 1-[4-(2-methyl-5-fluoro-benzyloxy)-benzenesulfonyl]-3-methyl-5-oxo-piperazine-2-carboxylic acidhydroxyamide] |
| < 0.01 | 0.2 to 1 | 0.01 to 0.02 | < 10 | Cc1ccccc1COc1ccc(S(=O)(=O)N2CCC[C@](C)(O)[C@@H]2C(=O)NO)cc1 [(2R,3S) 1-[4-(2-methyl-benzyloxy)-benzenesulfonyl]-3-hydroxy-3-methyl-piperidine-2-carboxylic acidhydroxyamide] |
| 0.02 to 0.2 | > 1 | < 0.01 | < 10 | Cc1ccccc1COc1ccc(S(=O)(=O)N2CCN(C(=O)CN)[C@@H](C)[C@@H]2C(=O)NO)cc1 [(2R,3S) 1-[4-(2-methyl-benzyloxy)-benzenesulfonyl]-4-aminoacetyl-3-methyl-piperazine-2-carboxylic acidhydroxyamide] |
| 0.01 to 0.02 | > 1 | < 0.01 | < 10 | Cc1cc(F)ccc1COc1ccc(S(=O)(=O)N2CC(=O)N[C@@H](C)[C@@H]2C(=O)NO)cc1 [(2R,3S) 1-[4-(4-fluoro-2-methyl-benzyloxy)-benzenesulfonyl]-3-methyl-5-oxo-piperazine-2-carboxylic acidhydroxyamide] |
| < 0.01 | 0.2 to 1 | 0.01 to 0.02 | 10 to 20 | CNC(=O)N1CCN(S(=O)(=O)c2ccc(OCc3ccc(F)cc3F)cc2)[C@@H](C(=O)NO)[C@@H]1C [(2R,3S) 4-[4-(2,4-difluoro-benzyloxy)-benzenesulfonyl]-3-methyl-4-carboxylic acidmethylamide-piperazine-2-carboxylic acidhydroxyamide] |
| 0.02 to 0.2 | > 1 | < 0.01 | < 10 | CCc1ccccc1COc1ccc(S(=O)(=O)N2CCN(C(=O)NC)[C@@H](C)[C@@H]2C(=O)NO)cc1 [(2R,3S) 4-[4-(2-ethyl-benzyloxy)-benzenesulfonyl]-3-methyl-4-carboxylic acidmethylamide-piperazine-2-carboxylic acidhydroxyamide] |
| < 0.01 | 0.2 to 1 | < 0.01 | 20 to 40 | CC1(C)C[C@@H](O)CN(S(=O)(=O)c2ccc(OCc3ccc(Cl)cc3Cl)cc2)[C@H]1C(=O)NO [(2R,5R) 1-[4-(2,4-dichloro-benzyloxy)-benzenesulfonyl]-5-hydroxy-3,3-dimethyl-piperidine-2-carboxylic acidhydroxyamide] |
| < 0.01 | 0.2 to 1 | 0.01 to 0.02 | < 10 | CC1(C)C[C@@H](O)CN(S(=O)(=O)c2ccc(OCc3ccccc3Br)cc2)[C@H]1C(=O)NO [(2R,5R) 1-[4-(2-bromo-benzyloxy)-benzenesulfonyl]-5-hydroxy-3,3-dimethyl-piperidine-2-carboxylic acidhydroxyamide] |
| < 0.01 | 0.2 to 1 | < 0.01 | 10 to 20 | CC1(C)C[C@@H](O)CN(S(=O)(=O)c2ccc(OCc3ccc(F)cc3Cl)cc2)[C@H]1C(=O)NO [(2R,5R) 1-[4-(2-chloro-4-fluoro-benzyloxy)-benzenesulfonyl]-5-hydroxy-3,3-dimethyl-piperidine-2-carboxylic acidhydroxyamide] |
| < 0.01 | 0.2 to 1 | 0.01 to 0.02 | 10 to 20 | CC1(C)C[C@@H](O)CN(S(=O)(=O)c2ccc(OCc3cc(Cl)ccc3F)cc2)[C@H]1C(=O)NO [(2R,5R) 1-[4-(2-fluoro-5-chloro-benzyloxy)-benzenesulfonyl]-5-hydroxy-3,3-dimethyl-piperidine-2-carboxylic acidhydroxyamide] |
| < 0.01 | 0.2 to 1 | < 0.01 | < 10 | Cc1c(F)cccc1COc1ccc(S(=O)(=O)N2C[C@H](O)CC(C)(C)[C@@H]2C(=O)NO)cc1 [(2R,5R) 1-[4-(2-methyl-3-fluoro-benzyloxy)-benzenesulfonyl]-5-hydroxy-3,3-dimethyl-piperidine-2-carboxylic acidhydroxyamide] |
| 0.02 to 0.2 | > 1 | 0.01 to 0.02 | 10 to 20 | Cc1ccc(Cl)cc1COc1ccc(S(=O)(=O)N2C[C@H](O)CC(C)(C)[C@@H]2C(=O)NO)cc1 [(2R,5R) 1-[4-(2-methyl-5-chloro-benzyloxy)-benzenesulfonyl]-5-hydroxy-3,3-dimethyl-piperidine-2-carboxylic acidhydroxyamide] |
| < 0.01 | 0.2 to 1 | < 0.01 | < 10 | Cc1cc(F)ccc1COc1ccc(S(=O)(=O)N2C[C@H](O)CC(C)(C)[C@@H]2C(=O)NO)cc1 [(2R,5R) 1-[4-(4-fluoro-2-methyl-benzyloxy)-benzenesulfonyl]-5-hydroxy-3,3-dimethyl-piperidine-2-carboxylic acidhydroxyamide] |
